Results: patent publication US10555987B2, “GHRH agonists for the treatment of ischemic disorders” (UNIVERSITY OF MIAMI, priority 2012, dated 2020)
Non-standard residues stand in square brackets, D forms with d. Residues, ends and D or L forms follow the SMILES beside them. *: point of attachment. Phe(F5) = N[C@@H](Cc1c(F)c(F)c(F)c(F)c1F)C(=O)O; Desaminotyrosyl = O=C(CCc1ccc(O)cc1)*; NMeY = CN[C@@H](Cc1ccc(O)cc1)C(=O)O; Nle = CCCC[C@H](N)C(=O)O; Orn = NCCC[C@H](N)C(=O)O; Abu = CC[C@H](N)C(=O)O; GABA = NCCCC(=O)O

Assays:
[1] = test system: GH release; experiment: In vivo endocrine activity, GH release after intravenous administration (Table 8); settings: rat; for Stimulation of growth hormone levels after intravenous administration (in words): i.v.; for GH releasing potency in vivo relative to JI-38 (=1): i.v. injection
[2] = test system: GH release; experiment: GH releasing potency in vivo, intravenous administration (Example 14, Table 13); design: species or system rat; settings: i.v.; for Serum GH level at selected time after injection (ng/ml), 0 min / Serum GH level at selected time after injection (ng/ml), 5 min / Serum GH level at selected time after injection (ng/ml), 15 min: dose 1 μg/kg, mean ± SEM
Description: Male Sprague-Dawley rats, weighing 200-250 g, were purchased from Charles River Laboratory (Wilmington, Mass.) and used for experiments. All animal procedures were approved by the Veterans Affairs Animal Care and Use Committee and were conducted in accordance with additional institutional guidelines as well. Briefly, groups of 5-6 animals were used in each experiment. The rats were anesthetized with 50 mg/kg of sodium pentobarbital (Nembutal, Lundbeck Inc., Deerfield, Ill.). Twenty min after inducing anesthesia, GHRH(1-29)NH2, JI-38, or new analogs were injected into the animals intravenously (i.v.) or subcutaneously (s.c.). The peptides were dissolved in 0.01 M acetic acid to get 1 μg/μl stock solution, and then diluted with 5% mannitol. Control rats received 5% mannitol only. Blood samples were collected from the jugular vein at selected times and were used for serum preparation. Concentrations of GH in rat sera were determined by ELISA. The relative potencies of tested peptides were calculated using GHRH(1-29)NH2 and JI-38 for comparison, whose potency was defined as 1. The equivalent dosage of GHRH(1-29)NH2 to reach the same level of serum growth hormone release after injection of the specific tested peptide was determined from a GHRH(1-29)NH2 standard curve using Origin 6.0 software. […] Serum GH was determined using the rat Growth Hormone ELISA kit (ALPCO Diagnostics, Mill Valley, Calif.) according to the manufacturer's instruction. Absorbance at 405 nm was measured by a Victor 3 Multi-label Counter (Perkin-Elmer, Waltham, Md.).

SMILES | Stimulation of growth hormone levels after intravenous administration (in words) [1] | GH releasing potency in vivo relative to JI-38 (=1) ([1]; 5 min after) | GH releasing potency in vivo relative to JI-38 (=1) ([1]; 15 min after) | GH releasing potency in vivo relative to JI-38 (=1) ([1]; 30 min after) | GH-releasing potency after intravenous administration (in words) [2] | Serum GH level at selected time after injection (ng/ml), 0 min [2] [ng/mL] | Serum GH level at selected time after injection (ng/ml), 5 min ([2]; 5 min) [ng/mL] | Serum GH level at selected time after injection (ng/ml), 15 min ([2]; 15 min) [ng/mL] | Relative potency, 5 min ([2]; 5 min, JI-38 = 1) | Relative potency, 15 min ([2]; 15 min, JI-38 = 1)
CCCC[C@H](NC(=O)[C@@H](NC(=O)[C@H](CC(=O)O)NC(=O)[C@H](CCC(N)=O)NC(=O)[C@H](CC(C)C)NC(=O)[C@H](CC(C)C)NC(=O)[C@H](CCCN)NC(=O)[C@H](CCCNC(=N)N)NC(=O)[C@H](C)NC(=O)[C@H](CO)NC(=O)[C@H](CC(C)C)NC(=O)[C@H](CCC(N)=O)NC(=O)[C@H](CC)NC(=O)[C@H](CC(C)C)NC(=O)[C@@H](NC(=O)[C@H](CCCN)NC(=O)[C@H](CCCNC(=N)N)NC(=O)[C@H](Cc1ccc(O)cc1)NC(=O)[C@H](CO)NC(=O)[C@H](CC(N)=O)NC(=O)[C@@H](NC(=O)[C@H](Cc1c(F)c(F)c(F)c(F)c1F)NC(=O)[C@@H](NC(=O)[C@H](C)NC(=O)[C@H](CC(=O)O)NC(=O)[C@@H](C)NC(=O)CCc1ccc(O)cc1)[C@@H](C)CC)[C@@H](C)O)C(C)C)[C@@H](C)CC)C(=O)N[C@@H](CO)C(=O)N[C@@H](CCCNC(=N)N)C(=O)NCCCC(N)=O [Peptide P-25502, [Dat^1, D-Ala^2, Fpa5^6, Orn^12, Abu^15, Orn^21, Nle^27, Gab^30]hGHRH(1-30)NH2] (Desaminotyrosyl-[dA]DAI[Phe(F5)]TNSYR[Orn]VL[Abu]QLSAR[Orn]LLQDI[Nle]SR[GABA]-NH2) | most potent | 6.76 | 5.40 | 5.83 | highest potency for GH release | 59.9 ± 15.9 | 1253 ± 185 | 575 ± 20.9 |  | 
CCCC[C@H](NC(=O)[C@@H](NC(=O)[C@H](CC(=O)O)NC(=O)[C@H](CCC(N)=O)NC(=O)[C@H](CC(C)C)NC(=O)[C@H](CC(C)C)NC(=O)[C@H](CCCN)NC(=O)[C@H](CCCNC(=N)N)NC(=O)[C@H](C)NC(=O)[C@H](CO)NC(=O)[C@H](CC(C)C)NC(=O)[C@H](CCC(N)=O)NC(=O)[C@H](CC)NC(=O)[C@H](CC(C)C)NC(=O)[C@@H](NC(=O)[C@H](CCCN)NC(=O)[C@H](CCCNC(=N)N)NC(=O)[C@H](Cc1ccc(O)cc1)NC(=O)[C@H](CO)NC(=O)[C@H](CCC(N)=O)NC(=O)[C@@H](NC(=O)[C@H](Cc1ccccc1)NC(=O)[C@@H](NC(=O)[C@H](C)NC(=O)[C@H](CC(=O)O)NC(=O)[C@@H](C)NC(=O)[C@H](Cc1ccc(O)cc1)NC)[C@@H](C)CC)[C@@H](C)O)C(C)C)[C@@H](C)CC)C(=O)N[C@@H](CC(=O)O)C(=O)N[C@@H](CCCNC(=N)N)C(=O)NC [Peptide P-27403, [N—Me-Tyr^1, D-Ala^2, Gln^8, Orn^12, Abu^15, Orn^21, Nle^27, Asp^28]hGHRH(1-29)NH—CH3] (H-[NMeY][dA]DAIFTQSYR[Orn]VL[Abu]QLSAR[Orn]LLQDI[Nle]DR-NHMe) | most potent |  | 5.01 | 4.01 |  | 47.7 ± 4.1 | 642 ± 29.7 | 268 ± 21.1 | 1.19 | 1.35
